Measurements reported in patent US9856216B2, “Compounds as TNIK, IKKε and TBK1 inhibitors and pharmaceutical composition comprising same” (GREEN CROSS CORPORATION, priority 2015, dated 2018).

Legend:
Assay type in all cases: biochemical
[1] = biological target: T1, IKKε (Homo sapiens, UniProt Q14164); assay: ADP-Glo Kinase Assay, inhibition activity on IKKε
T1 construct: purchased Invitrogen PR8031B
T1 sequence (Q14164 1-716): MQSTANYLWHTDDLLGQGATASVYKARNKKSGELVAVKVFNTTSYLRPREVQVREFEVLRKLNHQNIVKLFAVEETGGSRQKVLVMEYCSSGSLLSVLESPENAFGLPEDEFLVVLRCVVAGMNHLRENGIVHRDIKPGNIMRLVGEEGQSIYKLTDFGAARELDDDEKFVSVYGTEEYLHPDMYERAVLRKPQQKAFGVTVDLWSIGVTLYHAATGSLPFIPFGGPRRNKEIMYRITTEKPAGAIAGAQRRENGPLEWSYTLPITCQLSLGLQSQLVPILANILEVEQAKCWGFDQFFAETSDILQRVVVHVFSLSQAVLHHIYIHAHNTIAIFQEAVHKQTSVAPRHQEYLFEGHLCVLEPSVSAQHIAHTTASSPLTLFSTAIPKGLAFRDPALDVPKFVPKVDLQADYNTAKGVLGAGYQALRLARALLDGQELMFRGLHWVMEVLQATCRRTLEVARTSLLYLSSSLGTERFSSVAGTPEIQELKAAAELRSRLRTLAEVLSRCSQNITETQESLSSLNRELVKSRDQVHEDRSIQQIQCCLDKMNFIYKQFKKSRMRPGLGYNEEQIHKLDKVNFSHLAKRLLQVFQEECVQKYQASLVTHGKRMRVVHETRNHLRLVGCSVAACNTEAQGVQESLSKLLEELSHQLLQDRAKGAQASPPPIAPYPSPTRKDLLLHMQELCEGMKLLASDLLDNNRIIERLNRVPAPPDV
Procedure: (§1) The inhibition activities on TNIK, IKKε and TBK1 were measured by a luminometer, TNIK/IKKε/TBK1 Kinase Enzyme System (Promega, Ca# V4158; Invitrogen, PR8031B, Promega, Ca# V3991) and ADP-Glo Kinase Assay using ADP-Glo™ Kinase Analysis Kit (Promega, Ca# V9101) and a kinase reaction buffer [40 mM Tris(pH 7.5), 20 mM MgCl2, 0.1 mg/mL BSA] in accordance with the manufacturer's protocol.

[2] = biological target: T2, TBK1 (Homo sapiens, UniProt Q9UHD2); assay: ADP-Glo Kinase Assay, inhibition activity on TBK1
T2 construct: purchased Promega V3991
T2 sequence (Q9UHD2 1-729): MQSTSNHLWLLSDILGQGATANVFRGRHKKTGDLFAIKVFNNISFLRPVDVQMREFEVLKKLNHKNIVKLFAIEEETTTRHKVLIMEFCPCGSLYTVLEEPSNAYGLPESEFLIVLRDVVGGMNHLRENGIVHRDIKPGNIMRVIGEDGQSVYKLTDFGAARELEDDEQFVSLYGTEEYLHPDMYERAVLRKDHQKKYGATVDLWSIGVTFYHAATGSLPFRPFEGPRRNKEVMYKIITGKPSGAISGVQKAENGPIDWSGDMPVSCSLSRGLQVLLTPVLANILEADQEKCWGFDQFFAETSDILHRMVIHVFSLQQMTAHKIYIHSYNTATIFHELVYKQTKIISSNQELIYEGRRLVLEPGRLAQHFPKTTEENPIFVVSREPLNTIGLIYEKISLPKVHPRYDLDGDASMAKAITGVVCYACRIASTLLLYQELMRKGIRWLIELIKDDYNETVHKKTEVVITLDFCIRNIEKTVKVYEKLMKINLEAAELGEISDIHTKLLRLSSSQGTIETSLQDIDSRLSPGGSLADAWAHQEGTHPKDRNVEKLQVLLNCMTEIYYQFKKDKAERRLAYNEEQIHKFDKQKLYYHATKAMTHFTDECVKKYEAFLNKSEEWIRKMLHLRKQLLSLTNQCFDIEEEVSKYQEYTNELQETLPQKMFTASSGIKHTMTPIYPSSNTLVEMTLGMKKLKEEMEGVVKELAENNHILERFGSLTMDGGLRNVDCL
Procedure: as §1

[3] = biological target: T3, TNIK (Homo sapiens, UniProt Q9UKE5); assay: ADP-Glo Kinase Assay, inhibition activity on TNIK; details: read-out: TNIK
T3 construct: purchased Promega V4158
T3 sequence (Q9UKE5 1-367 limits assumed): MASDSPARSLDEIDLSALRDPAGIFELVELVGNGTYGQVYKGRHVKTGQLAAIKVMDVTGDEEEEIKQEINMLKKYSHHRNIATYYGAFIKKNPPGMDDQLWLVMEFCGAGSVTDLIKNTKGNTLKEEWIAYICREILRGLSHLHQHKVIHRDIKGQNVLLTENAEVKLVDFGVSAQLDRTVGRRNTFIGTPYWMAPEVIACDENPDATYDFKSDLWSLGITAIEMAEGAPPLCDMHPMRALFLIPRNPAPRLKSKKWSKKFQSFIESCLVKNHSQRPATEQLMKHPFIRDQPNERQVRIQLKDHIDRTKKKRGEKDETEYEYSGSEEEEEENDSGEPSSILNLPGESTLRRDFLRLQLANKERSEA
Procedure: as §1

SMILES | IC50 [1] [nM] | IC50 [2] [nM] | IC50 [3] [nM]
COc1cccc(Nc2cc(-c3ccc(N)c4c3CNC4=O)ccn2)c1 [Example 68, 7-Amino-4-(2-((3-methoxyphenyl)amino)pyridin-4-yl) isoindolin-1-one] | 2640 | 1240 | 
COc1cccc(Nc2ccnc(-c3ccc(N)c4c3CNC4=O)c2)c1 [Example 69, 7-Amino-4-(4-((3-methoxyphenyl)amino)pyridin-2-yl) isoindolin-1-one] |  | > 10000 | 
COc1cccc(Nc2nccc(-c3ccc(N)c4c3CNC4=O)n2)c1 [Example 70, 7-Amino-4-(2-((3-methoxyphenyl)amino)pyrimidin-4-yl) isoindolin-1-one] | 51 | 51 | 
Cn1cc(Nc2nccc(-c3ccc(N)c4c3CNC4=O)n2)cn1 [Example 71] | 160 | 150 | 
Nc1ccc(-c2ccnc(Nc3ccccc3)n2)c2c1C(=O)NC2 [Example 72, 7-Amino-4-(2-(phenylamino)pyrimidin-4-yl)isoindolin-1-one] | 280 | 90 | 
Nc1ccc(-c2ccnc(Nc3cccc(F)c3)n2)c2c1C(=O)NC2 [Example 73, 7-Amino-4-(2-((3-fluorophenyl)amino)pyrimidin-4-yl) isoindolin-1-one] | 350 | 35 | 
Nc1ccc(-c2ccnc(Nc3ccc(F)cc3)n2)c2c1C(=O)NC2 [Example 74, 7-Amino-4-(2-((4-fluorophenyl)amino)pyrimidin-4-yl) isoindolin-1-one] | 560 | 43 | 
COc1ccc(Nc2nccc(-c3ccc(N)c4c3CNC4=O)n2)cc1 [Example 75, 7-Amino-4-(2-((4-methoxyphenyl)amino)pyrimidin-4-yl) isoindolin-1-one] | 360 | 110 | 
CC(=O)Nc1ccc(Nc2nccc(-c3ccc(N)c4c3CNC4=O)n2)cc1 [Example 76, N-(4-((4-(7-amino-1-oxoisoindolin-4-yl)pyrimidin-2-yl)amino)phenyl)acetamide] | 350 | 100 | 
CC(=O)Nc1cccc(Nc2nccc(-c3ccc(N)c4c3CNC4=O)n2)c1 [Example 77, N-(3-((4-(7-amino-1-oxoisoindolin-4-yl)pyrimidin-2-yl)amino)phenyl)acetamide] | 200 | 27 | 
COc1cccc(Nc2cc(-c3ccc(N)c4c3CNC4=O)ncn2)c1 [Example 78, 7-Amino-4-(6-((3-methoxyphenyl)amino)pyrimidin-4-yl) isoindolin-1-one] | 1390 | 190 | 
Nc1ccc(-c2c[nH]c3ncc(-c4ccccc4)cc23)c2c1C(=O)NC2 [Example 79, 7-Amino-4-(5-phenyl-1H-pyrrolo[2,3-b]pyridin-3-yl) isoindolin-1-one] |  | 640 | 
Nc1ccc(-c2ccnc3[nH]ccc23)c2c1C(=O)NC2 [Example 80, 7-Amino-4-(1H-pyrrolo[2,3-b]pyridin-4-yl)isoindolin-1-one] | > 10000 | 9230 | 
CN1CCN(c2nccc(-c3ccc(N)c4c3CNC4=O)n2)CC1 [Example 81, 7-Amino-4-(2-(4-methylpiperazin-1-yl)pyrimidin-4-yl) isoindolin-1-one] | > 10000 | > 10000 | 
Nc1ccc(-c2ccnc(N3CCOCC3)n2)c2c1C(=O)NC2 [Example 82, 7-Amino-4-(2-morpholinopyrimidin-4-yl)isoindolin-1-one] | > 10000 | > 10000 | 
Cc1ccc(Nc2nccc(-c3ccc(N)c4c3CNC4=O)n2)cc1 [Example 83, 7-Amino-4-(2-(p-tolylamino)pyrimidin-4-yl)isoindolin-1-one] | 870 | 380 | 

SMILES | IC50 [1] [nM] | IC50 [2] [nM] | IC50 [3] [nM]
Cc1cccc(Nc2nccc(-c3ccc(N)c4c3CNC4=O)n2)c1 [Example 84, 7-Amino-4-(2-(m-tolylamino)pyrimidin-4-yl)isoindolin-1-one] | 440 | 200 | 
CC(=O)Nc1ccc(-c2cnc3[nH]cc(-c4ccc(N)c5c4CNC5=O)c3c2)cc1 [Example 85, N-(4-(3-(7-amino-1-oxoisoindolin-4-yl)-1H-pyrrolo[2,3-b]pyridine-5-yl)phenyl)acetamide] | 160 | 72 | 
Nc1ccc(-c2c[nH]c3ncc(-c4ccc(CN5CCOCC5)s4)cc23)c2c1C(=O)NC2 [Example 86, 7-Amino-4-(5-(5-(morpholinomethyl)thiophen-2-yl)-1H-pyrrolo[2,3-b]pyridin-3-yl)isoindolin-1-one] | 56 | 32 | 
COc1cccc(Nc2nccc(-c3ccc(NC(C)=O)c4c3CNC4=O)n2)c1 [Example 162, N-(7-(2-((3-methoxyphenyl)amino)pyrimidin-4-yl)-3-oxoisoindolin-4-yl)acetamide] | 630 | 100 | 
Cc1ccccc1Nc1ccc(NC(=O)c2ccc(NCCN3CCCCC3)cc2)c2c1CNC2=O [Example 482, N-(3-oxo-7-(o-tolylamino)isoindolin-4-yl)-4-((2-(piperidin-1-yl)ethyl)amino)benzamide] |  |  | 420
Cc1ccccc1Nc1ccc(NC(=O)c2ccc(NCCCN3CCCCC3)cc2)c2c1CNC2=O [Example 483, N-(3-oxo-7-(o-tolylamino)isoindolin-4-yl)-4-((3-(piperidin-1-yl)propyl)amino)benzamide] |  |  | 250
O=C(Nc1ccc(Nc2ccccc2)c2c1C(=O)NC2)c1ccc(NCCCCO)cc1 [Example 484, 4-((4-Hydroxybutyl)amino)-N-(3-oxo-7-(phenylamino)isoindolin-4-yl)benzamide] |  |  | 290
CC(=O)NCCNc1ccc(C(=O)Nc2ccc(Nc3ccccc3)c3c2C(=O)NC3)cc1 [Example 485, 4-((2-Acetamidoethyl)amino)-N-(3-oxo-7-(phenylamino)isoindolin-4-yl)benzamide] |  |  | 100
NCCCNc1ccc(C(=O)Nc2ccc(Nc3ccccc3)c3c2C(=O)NC3)cc1 [Example 486, 4-((3-Aminopropyl)amino)-N-(3-oxo-7-(phenylamino)isoindolin-4-yl)benzamide] |  |  | 200
O=C(Nc1ccc(Nc2ccccc2)c2c1C(=O)NC2)c1ccc(NCCO)cc1 [Example 487, 4-((2-Hydroxyethyl)amino)-N-(3-oxo-7-(phenylamino)isoindolin-4-yl)benzamide] |  |  | 97
O=C(Nc1ccc(Nc2ccccc2)c2c1C(=O)NC2)c1ccc(NCC(O)CN2CCCCC2)cc1 (stereo not shown) [Example 488, 4-((2-Hydroxy-3-(piperidin-1-yl)propyl)amino)-N-(3-oxo-7-(phenylamino)isoindolin-4-yl)benzamide] |  |  | 93
O=C(Nc1ccc(Nc2ccccc2)c2c1C(=O)NC2)c1ccc(NC[C@H](O)CN2CCCCC2)cc1 [Example 489, (S)-4-((2-hydroxy-3-(piperidin-1-yl)propyl)amino)-N-(3-oxo-7-(phenylamino)isoindolin-4-yl)benzamide] |  |  | 87
O=C(Nc1ccc(Nc2ccccc2)c2c1C(=O)NC2)c1ccc(NC[C@@H](O)CN2CCCCC2)cc1 [Example 490, (R)-4-((2-hydroxy-3-(piperidin-1-yl)propyl)amino)-N-(3-oxo-7-(phenylamino)isoindolin-4-yl)benzamide] |  |  | 140
NC1CCN(c2ccc(C(=O)Nc3ccc(Nc4ccccc4)c4c3C(=O)NC4)cc2)CC1 [Example 491, 4-(4-Aminopiperidin-1-yl)-N-(3-oxo-7-(phenylamino)isoindolin-4-yl)benzamide] |  |  | 110
O=C(Nc1ccc(Nc2ccccc2)c2c1C(=O)NC2)c1ccc(NCCN2CCCCCC2)cc1 [Example 492, 4-((2-(Azepan-1-yl)ethyl)amino)-N-(3-oxo-7-(phenylamino)isoindolin-4-yl)benzamide] |  |  | 180
